{
  "source": "patent US10968190B2",
  "about": "“Processes for preparing oxathiazin-like compounds” (GEISTLICH PHARMA AG, priority 2014, dated 2021)",
  "key": {"[1]": {"test_system": "human glioma cell line LN-229", "experiment": "Cytotoxicity assay in LN-229 cells (crystal violet)", "type": "cell-based", "conditions": "for OD (absorbance at 540 nm; high values = high cell viability): 24 h; for EC50: Homo sapiens, LN-229, 24 h", "protocol": "Cell lines: The human glioma cell line LN-229 was used as described previously (Rodak et al. 2005) as well as the human colon adenocarcinoma cell line SW480.\nCytotoxicity assay: Dissociated LN-229 cells were seeded into 96-well plates at a density of 10^4 cells per well in 100 μl of culture medium. […] Triplicate cultures were prepared for each sample. After 24 h of incubation at […], the remaining adherent viable cells were stained using crystal violet as described (Rodack et al. 2005). Cell viability was determined by measuring the absorbancy at 540 nm. The results are expressed as killing rate given by the difference between 100% of cells and percentage of cells surviving. EC50 values correspond to the concentration inducing 50% cell death."}, "[2]": {"experiment": "Half-life in human fresh blood in vitro by GC", "type": "in vitro ADME", "conditions": "37° C."}, "Staphylococcus aureus": {"test_system": "Staphylococcus aureus", "experiment": "Antibacterial activity against Staphylococcus aureus", "type": "cell-based"}, "Escherichia coli": {"test_system": "Escherichia coli", "experiment": "Antibacterial activity against Escherichia coli", "type": "cell-based"}, "[3]": {"test_system": "MRSA lines 188, 189, 193, 194 and 195", "experiment": "Punch plate tests against MRSA", "type": "cell-based"}, "[4]": {"test_system": "cancers identified herein", "experiment": "Administration to patients having cancers (Example 5)", "type": "in vivo", "conditions": "Example 5, present tense", "protocol": "Each of these compounds is administered with Vitamin D3, a derivative, metabolite or analog thereof and the combination is found to increase the anti-tumor effects of the compounds."}, "[5]": {"test_system": "tumor cell lines AsPC-1, BxPC-3 and HCT-116", "experiment": "Inhibition of cell viability in tumor cell lines", "type": "cell-based", "conditions": "read-out: Half-maximal inhibition of cell viability", "source_text": "These effects are similar to those observed in glioma cell line LN-229. The induction of cell death was due to apoptosis and necrosis (most likely necroptosis). […] Thus, there is a redox-directed mechanism of action."}, "[6]": {"test_system": "pancreas tumor cells (AsPC-1, BxPC-3 and HCT-116)", "experiment": "Growth inhibition of pancreas tumor cells", "type": "cell-based", "conditions": "read-out: half-maximal concentration of growth inhibition", "protocol": "The growth of pancreas tumor cells (AsPC-1, BxPC-3 and HCT-116) was inhibited by compound 2250 with a half-maximal concentration of 300 μM, which is considerably lower than the concentration needed to elicit cytotoxicity."}, "[7]": {"test_system": "multicellular pancreatic tumor (Panc Tul or BxPC-3) spheroids", "experiment": "Pancreatic stem cell-like multicellular spheroid toxicity assay", "type": "cell-based", "conditions": "taurolidine 500 μM, compound 2250 1000 μM, 48 hours", "source_text": "Multicellular spheroids are composed of tumor cells growing in a 3-dimensional structure stimulating the growth, micro-environmental conditions and stem cell-like characteristics of real tumors. The multicellular tumor spheroid (MCTS) model compensates for many of the deficiencies seen in monolayer cultures. Spheroids on the scale of 200-500 μm develop chemical gradients of oxygen, nutrients, and catabolites, while having morphological and functional features similar to tumors. Therefore, assays utilizing the MCTS model allow for the assessment of drug penetration and are more predictive of in vivo success compared with monolayer cultures. MCTS assays are a tumor model system of intermediate complexity between standard monolayer and tumors in vivo.\nPancreatic tumor cells (Panc Tu-1, BxPC-3, Mia Paca-2, ASPC1) and pancreatic primary tumor cells (Bo80) were seeded in ultra-low adhesion plates in special stem cell media.\nPancreatic tumor cells (ASPC1, Mia Paca-2, Panc Tul, BxPC-3) and pancreatic primary tumor cells (Bo80) were raised in monolayer culture before seeding in ultra low adhesion plates under conditions of special stem cell media to form multicellular spheroids and passed through a cell strainer to exclude aggregates. […]"}, "MiaPaca2 tumor": {"test_system": "MiaPaca2 tumor", "experiment": "MiaPaca2 subcutaneous tumor model in nude mice", "type": "in vivo, nude mice (NMRI-Foxn1 nu/nu)", "conditions": "500 mg/kg i.p. on alternating days"}, "PancTu I tumor": {"test_system": "PancTu I tumor", "experiment": "PancTu I subcutaneous tumor model in nude mice", "type": "in vivo, nude mice (NMRI-Foxn1 nu/nu)", "conditions": "500 mg/kg i.p. on alternating days"}, "[8]": {"test_system": "pancreatic primary tumors (Bo 73)", "experiment": "Xenograft model of pancreatic primary tumors Bo 73", "type": "in vivo", "conditions": "Bo 73, observed for 15 days; differences not statistically relevant", "source_text": "(§1) However, the differences in tumor volumes were not statistically relevant, likely due to the short duration of the study and the slow growth rate of the tumors."}, "[9]": {"test_system": "pancreatic primary tumors (Bo 70)", "experiment": "Xenograft model of pancreatic primary tumors Bo 70", "type": "in vivo", "conditions": "Bo 70, observed for 23 days", "source_text": "as §1"}, "[10]": {"experiment": "Water solubility and isotonicity", "type": "physicochemical", "source_text": "In certain embodiments, no PVP necessary to increase the solubility. For example, a 3.2% solution 2250 is isotonic. This is an unexpected advantage over taurolidine."}, "[11]": {"experiment": "Toxicity in mice during the tumor study", "conditions": "500 mg/kg i.p. on alternating days", "quoted_text": "1×10^7 tumor cells (PancTu-I and MiaPaca 2) were injected subcutaneously into the flank.\nTumors were grown to a size of 200 mm^3 before the treatment was started. Mice were treated on alternating days with 500 mg/kg*body weight (BW)."}},
  "note": "pIC50: −log10 of the molar value. Like-named read-outs stand apart in the source and are kept apart here.",
  "data": [
    {"smiles": "O=S1(=O)CCOCN1", "note": "[compound 2250, Tetrahydro1,4,5-oxathiazin-4-dioxide]", "values": [
      {"measurement": "OD (absorbance at 540 nm; high values = high cell viability)", "setting": "[1]; 4 μg/ml", "value": 1.477},
      {"measurement": "OD (absorbance at 540 nm; high values = high cell viability)", "setting": "[1]; 8 μg/ml", "value": 1.527},
      {"measurement": "OD (absorbance at 540 nm; high values = high cell viability)", "setting": "[1]; 15.5 μg/ml", "value": 1.482},
      {"measurement": "OD (absorbance at 540 nm; high values = high cell viability)", "setting": "[1]; 31 μg/ml", "value": 1.482},
      {"measurement": "OD (absorbance at 540 nm; high values = high cell viability)", "setting": "[1]; 62.5 μg/ml", "value": 0.372},
      {"measurement": "OD (absorbance at 540 nm; high values = high cell viability)", "setting": "[1]; 250 μg/ml", "value": 0.120},
      {"measurement": "OD (absorbance at 540 nm; high values = high cell viability)", "setting": "[1]; 500 μg/ml", "value": 0.141},
      {"measurement": "OD (absorbance at 540 nm; high values = high cell viability)", "setting": "[1]; 1000 μg/ml", "value": 0.189},
      {"measurement": "EC50", "setting": "[1]; read-out: EC50 (concentration inducing 50% cell death), LN-229 cells, 24 h incubation", "value": 45, "unit": "µg/mL"},
      {"measurement": "EC50", "setting": "[1]; read-out: half-maximal concentration of inducing cell death EC50", "value": 50, "unit": "µg/mL"},
      {"measurement": "concentration in human fresh blood", "setting": "[2]; After 1 hour", "value": 50.6, "unit": "ppm"},
      {"measurement": "concentration in human fresh blood", "setting": "[2]; After 2 hours", "value": 47.6, "unit": "ppm"},
      {"measurement": "concentration in human fresh blood", "setting": "[2]; After 20 hours", "value": "38.6-39.0 ppm"},
      {"measurement": "concentration in human fresh blood", "setting": "[2]; Baseline Value", "value": 49.0, "unit": "ppm"},
      {"measurement": "half-life at 49 ppm", "setting": "[2]; human fresh blood, in vitro", "value": "> 24", "unit": "h"},
      {"measurement": "antibacterial activity relative to Taurultam", "setting": "Staphylococcus aureus; Staph. aureus", "value": "about double as high as Taurultam"},
      {"measurement": "antibacterial activity", "setting": "Staphylococcus aureus; Staphylococcus aureus", "value": "very high level of antibacterial activity"},
      {"measurement": "antibacterial activity", "setting": "Escherichia coli", "value": "very high level of antibacterial activity"},
      {"measurement": "activity in punch plate tests", "setting": "[3]", "value": "highly active"},
      {"measurement": "effectiveness in treating cancers in patients", "setting": "[4]", "value": "effective in treating such cancers"},
      {"measurement": "safety for use in patients", "setting": "[4]", "value": "safe for use in patients"},
      {"measurement": "pIC50", "setting": "[5]", "value": "3.00 to 3.12"},
      {"measurement": "pIC50", "setting": "[6]", "value": 3.52},
      {"measurement": "effect on pancreatic stem cell like multicellular spheroid cultures", "setting": "[7]", "value": "antineoplastic effect"},
      {"measurement": "decrease of MiaPaca2 tumor volume compared to control", "setting": "MiaPaca2 tumor", "value": "over 3 fold"},
      {"measurement": "decrease of PancTu I tumor volume compared to control", "setting": "PancTu I tumor", "value": "about 2 fold"},
      {"measurement": "relative tumor volume compared to control", "setting": "[8]", "value": "further reduced relative tumor volume compared to control"},
      {"measurement": "tumor volume compared to control", "setting": "[9]", "value": "significantly reduce tumor volume compared to control"},
      {"measurement": "solubility in water", "setting": "[10]", "value": "very soluble in water"},
      {"measurement": "concentration of isotonic solution", "setting": "[10]; no PVP", "value": 3.2, "unit": "%"},
      {"measurement": "toxic effect on the mice during the study", "setting": "[11]", "value": "no toxic effect"}
    ]}
  ]
}
